Results reported in patent US20170112878A1, “PROGRAMMABLE UNIVERSAL CELL RECEPTORS AND METHOD OF USING THE SAME” (Sorrento Therapeutics, Inc., priority 2015, published 2017).

System: PUCR comprising 38C2 scFab expressed on the membrane of the NKL cells
Experiment: Programming of PUCR on NKL cells with AZD-PEG8-biotin, detected with DTAF-conjugated streptavidin by FACS
Assay type: cell-based
Settings: 1 μM or 10 μM, 4° C., 1 hour, PUCR-expressing vs wild-type NKL cells
Excerpt: To generate constructs encoding a PUCR comprising humanized 38C2 scFab, a nucleic acid encoding the humanized 38C2 scFab was designed by fusing a nucleic acid encoding humanized 38C2 […] LC domain, a nucleic acid encoding a poly-GlySer linker, a nucleic acid encoding the humanized 38C2 VH domain, and a nucleic acid encoding the human gamma 1 HC constant domain 1. The resulting nucleic acid fragment was cloned into a retroviral vector to encode a PUCR comprising an N-terminal leader peptide, followed by the 38C2 scFab, followed by a hybrid CD8 and CD28 hinge, a CD28 transmembrane domain, a CD28 intracellular domain, and a CD3ζ intracellular domain. The nucleic acid and amino acid sequences of the PUCR are shown below. NKL cells were transduced with the viral vector encoding the PUCR.
The PUCR comprising 38C2 scFab expressed on the membrane of the NKL cells was conjugated (i.e., programmed) with the specificity agent AZD-PEG8-biotin (see FIG. 11). […] AZD-PEG8-biotin comprises the reactivity moiety azetidinone which reacts with and forms a stable covalent bond with the reactive lysine of the 38C2 scFab within the PUCR. […] Fluorescence was measured using a ACEA Biosciences NovoCyte flow cytometer. Data was analyzed with FlowJo software, and DTAF-conjugated streptavidin binding was quantified by increased mean fluorescence intensity. […]

O=C(CCCC[C@@H]1SC[C@@H]2NC(=O)N[C@@H]21)NCCOCCOCCOCCOCCOCCOCCNC(=O)CCOCCOCCC(=O)Nc1ccc(CCC(=O)N2CCC2=O)cc1 [AZD-PEG8-Biotin, 5-[(3aS,4S,6aR)-2-oxo-1,3,3a,4,6,6a-hexahydrothieno[3,4-d]imidazol-4-yl]-N-[2-[2-[2-[2-[2-[2-[2-[3-[2-[3-oxo-3-[4-[3-oxo-3-(2-oxoazetidin-1-yl)propyl]anilino]propoxy]ethoxy]propanoylamino]ethoxy]ethoxy]ethoxy]ethoxy]ethoxy]ethoxy]ethyl]pentanamide]
conjugation (programming) of PUCR, DTAF-conjugated streptavidin binding: successfully programmed
